From PMC4530782 (Bioorganic & medicinal chemistry letters, 2011)

How the values were obtained:
[1] = tested on: Stat3 phosphorylation in MDA-468 cells; assay type: cell-based, human; settings: 24 hrs
[2] = Water solubility; assay type: physicochemical; settings: compared with 7 and 17e
[3] = tested on: Stat3 phosphorylation in JJN3 cells; assay type: cell-based, human; settings: 24 hrs
[4] = tested on: JJN3 (multiple myeloma) cancer cells; assay: Whole cell MTS cytotoxicity assay, JJN3; assay type: cell-based; settings: Homo sapiens, JJN-3, 72 h, read-out: EC50 JJN3
[5] = tested on: MDA-468 (breast) cancer cells; assay: Whole cell MTS cytotoxicity assay, MDA-468; assay type: cell-based; settings: Homo sapiens, 72 h, read-out: EC50 MDA-468
[6] = tested on: NIH3T3, TE-71 and HPDEC cells; settings: cited from earlier work
[7] = tested on: breast tumor xenografts; settings: cited from earlier work
[8] = tested on: DU145 (prostate) cancer cells; assay: Whole cell MTS cytotoxicity assay, DU145; assay type: cell-based; settings: Homo sapiens, DU-145, 72 h, read-out: EC50 DU145
[9] = target: Stat1; settings: read-out: Stat1 Ki, fluorescence polarization; earlier work on 7; cited from earlier work
[10] = target: Stat5; settings: read-out: Stat5 Ki, fluorescence polarization; earlier work on 7; cited from earlier work

Row | SMILES | levels of Stat3 downstream targets (cMYC, Bcl-xL, Survivin) ([1]; immunoblotting) | water solubility (in words) [2] | levels of Stat3 downstream targets (cMYC, Bcl-xL, Survivin) ([3]; immunoblotting) | concentration at which Stat3 phosphorylation is inhibited ([1]; Western blot) | EC50 [4] | EC50 [5] | concentration at which Stat3 phosphorylation is inhibited ([3]; Western blot) | effects against 'healthy' cells lacking activated Stat3 [6] | in vivo effect on breast tumor xenografts [7] | EC50 [8] | Ki [9] | Ki [10]
1 | CN(CC(=O)N(Cc1ccc(C2CCCCC2)cc1)c1ccc(C(=O)O)c(O)c1)S(=O)(=O)c1c(F)c(F)c(F)c(F)c1F [17o] | effectively reduced levels of Stat3 downstream targets | much improved water solubility over both 7 and 17e | effectively reduced levels of Stat3 downstream targets | – | – | – | – | – | – | – | – | –
2 | Cc1ccc(S(=O)(=O)N(C)CC(=O)N(Cc2ccc(C3CCCCC3)cc2)c2ccc(C(=O)O)c(O)c2)cc1 [compound 7] | – | – | – | approximately 100 μM | 93.3 ± 15.8 µM | 17 ± 4.4 µM | approximately 100 μM | negligible effects | suppression of breast tumor xenografts | 37.2 ± 12.4 µM | > 25 µM | > 25 µM
